Test results as given in patent US11692436B2, “Molecular tracers and modified proppants for monitoring underground fluid flows” (National Technology & Engineering Solutions of Sandia, LLC, priority 2014, dated 2023).

Assay: Elution studies: tracer release from an infused porous proppant pack under constant solvent flow
Assay type: physicochemical
Conditions: proppant pack infused with 4
Description: Elution studies: Laboratory experiments designed to mimic fluid flow through hydraulically-fractured zones in a subsurface well that contain a ceramic proppant were conducted. In general, the experimental setup uses a cartridge pump to send the desired solvent fluid (either aqueous or hydrocarbon) at a constant rate through a small “proppant pack” to a fraction collector. The proppant pack consists of porous proppants that have been infused with the metal salen compounds which are packed into a plastic syringe equipped with a fine mesh proppant retention screen at the entrance tip. The pore volume—a measure of the fluid volume within the pack of proppant pellets—is measured. The proppant pack is then sealed at the top with a rubber septum to generate pressure to force the exiting fluid into tubing for transport to the collection test tubes in the fraction collector. Samples were collected over many pore volumes and the concentrations of metal complexes in the samples were measured by either Atomic Absorption Spectrophotometry (AAS) or Raman spectroscopy after the desired number of pore volumes had passed over the proppant pack. […] This retardation of tracer release in the early stage of use is important as it will extend the useful life of the tracer in practical applications, as the total amount of tracer that can be loaded is limited by the porosity of the proppant and solubility of the M-L metal complex.
(iii) Elution data. As mentioned previously, in order for the prepared metal-salen ligand complexes to be useful in tracking fluid flows the infused complexes must elute from the underground proppants upon exposure to the produced fluid, and remain soluble until they are analyzed above-ground. […]
Second, the testing solvent can be either an aqueous salt solution that simulates a formation brine or a long-chain hydrocarbon (such as Isopar L) to mimic the organic products. […] The amount of eluted tracer could also be measured using quantitative Raman spectroscopy. […]

level of eluted Mg-salen complex (aliquot taken after four pore volumes had been collected (initial phase)): 176 ppb
level of eluted Mg-salen complex (intermediate sampling at the 20 pore volume mark): 29 ppb
level of eluted Mg-salen complex (latter stages of testing at the ~40 pore volume mark): 9 ppb
Substance: [(κ^4-(O,N,N′,O′)saloPh-Bu^t)Mg(py)2].tol [Compound 4]
